In general, IC50 refers to the concentration that gives 50% inhibition. A higher IC50 goes with lower potency.

Here are results for 15 molecules from ChEMBL document CHEMBL4373739, “6-Cinnamoyl-4-arylaminothienopyrimidines as highly potent cytotoxic agents: Design, synthesis and structure-activity relationship studies” (Eur J Med Chem, 2020).

In one data set the test system is MDA-MB-231. Description: Antiproliferative activity against human MDA-MB-231 cells incubated for 48 hrs by MTT assay. It counts as functional, cell-based. The note with it: MDA-MB-231, 48 h.
The subject of data set [1] is HeLa. Description: Antiproliferative activity against human HeLa cells incubated for 48 hrs by MTT assay. The class given is functional, cell-based. In general terms: Tetrazolium assays rely on reduction of a dye to a coloured formazan, in cell work by metabolically active cells.
The next data set concerns MCF7. Put plainly: Antiproliferative activity against human MCF7 cells incubated for 48 hrs by MTT assay. It counts as functional, cell-based. The note with it: MCF7, 48 h.
For another data set, the system named is A549. Put plainly: Antiproliferative activity against human A549 cells incubated for 48 hrs by MTT assay. It counts as functional, cell-based. As to conditions: A549, 48 h.
The test system of the next data set is PC-3. Description: Antiproliferative activity against human PC3 cells incubated for 48 hrs by MTT assay. The note with it: PC-3, 48 h. The class given is functional, cell-based.
For the next data set, the system named is HepG2. Description: Antiproliferative activity against human HepG2 cells incubated for 48 hrs by MTT assay. As to conditions: HepG2, 48 h. It counts as functional, cell-based.
Another data set has as its system MRC5. Description: Cytotoxicity against human MRC5 cells incubated for 48 hrs by MTT assay. The class given is cell-based. The note with it: MRC5, 48 h.
A further data set concerns SK-OV-3. Description: Antiproliferative activity against human SKOV3 cells incubated for 48 hrs by MTT assay. As to conditions: SK-OV-3, 48 h. It counts as functional, cell-based.
A short description of data set [2]: Selectivity index, ratio of IC50 for human MRC5 to IC50 for human A549. The class given is toxicity. The note with it: MRC5 cells and A549 cells, read-out: Ratio IC50.
Another data set relates to SK-BR-3. Description: Antiproliferative activity against human SKBR3 cells incubated for 48 hrs by MTT assay. The class given is functional, cell-based. The note with it: SK-BR-3, 48 h.
Data set [3] relates to HeLa. Description: Induction of apoptosis in human HeLa cells assessed as late apoptotic cells at IC50 concentration after 48 hrs by AnnexinV-APC/propidium iodide staining based FACScalibur flow cytometry analysis (reference value: 4.30 %). It counts as functional. (In general: In flow cytometry, cells or beads pass a laser one at a time.)
Another data set concerns HCT-116. Description: Antiproliferative activity against human HCT116 cells incubated for 48 hrs by MTT assay. It counts as functional, cell-based. The note with it: HCT-116, 48 h.
Data set [4] deals with HeLa. Put plainly: Induction of cell cycle arrest in human HeLa cells assessed as increase in cell population at sub-G1 phase at IC50 concentration after 48 hrs by RNase/propidium iodide staining based flow cytometry analysis. The class given is functional.
In another data set the test system is U-87 MG. Put plainly: Antiproliferative activity against human U87 cells incubated for 48 hrs by MTT assay. The class given is functional, cell-based, U-87MG ATCC.
Data set [5] deals with HeLa. Put plainly: Induction of apoptosis in human HeLa cells assessed as early apoptotic cells at IC50 concentration after 48 hrs by AnnexinV-APC/propidium iodide staining based FACScalibur flow cytometry analysis (reference value: 3.23 %). The class given is functional.
Data set [6] deals with HeLa. Description: Induction of apoptosis in human HeLa cells assessed as live cells at IC50 concentration after 48 hrs by AnnexinV-APC/propidium iodide staining based FACScalibur flow cytometry analysis (reference value: 92 %). It counts as functional.
For a further data set, the system named is SW480. Description: Antiproliferative activity against human SW480 cells incubated for 48 hrs by MTT assay. The note with it: SW480, 48 h. The class given is functional, cell-based.
The test system of data set [7] is HeLa. Description: Induction of apoptosis in human HeLa cells assessed as necrotic cells at IC50 concentration after 48 hrs by AnnexinV-APC/propidium iodide staining based FACScalibur flow cytometry analysis (reference value: 0.457 %). It counts as functional.
Data set [8] concerns the target Epidermal growth factor receptor (Homo sapiens) (UniProt P00533). Description: Inhibition of EGFR in human HeLa cells assessed as effect on AKT phosphorylation at IC50 concentration measured upto 48 hrs by Western blot analysis. It counts as cell-based. For orientation: In western blotting, separated proteins are transferred to a membrane and probed.
The target is the same in data set [9]. Description: Inhibition of EGFR phosphorylation in human HeLa cells at IC50 concentration measured upto 48 hrs by Western blot analysis. The class given is cell-based.
The target is the same in data set [10]. Description: Inhibition of EGFR in human HeLa cells assessed as reduction in ERK 1/2 phosphorylation at IC50 concentration measured upto 48 hrs by Western blot analysis. The class given is cell-based.
In data set [11] the test system is HeLa. Description: Induction of apoptosis in human HeLa cells assessed as early apoptotic cells after 48 hrs by AnnexinV-APC/propidium iodide staining based FACScalibur flow cytometry analysis (reference value: 3.23 %). It counts as functional.
The test system of data set [12] is HeLa. Put plainly: Induction of apoptosis in human HeLa cells assessed as late apoptotic cells after 48 hrs by AnnexinV-APC/propidium iodide staining based FACScalibur flow cytometry analysis (reference value: 4.30 %). It counts as functional.
For data set [13], the system named is HeLa. Put plainly: Induction of apoptosis in human HeLa cells assessed as live cells after 48 hrs by AnnexinV-APC/propidium iodide staining based FACScalibur flow cytometry analysis (reference value: 92 %). The class given is functional.
In data set [14] the test system is HeLa. Description: Induction of apoptosis in human HeLa cells assessed as necrotic cells after 48 hrs by AnnexinV-APC/propidium iodide staining based FACScalibur flow cytometry analysis (reference value: 0.457 %). It counts as functional.

Calls of active or inactive are those of the source. The rule behind the calls is not given here.

Sequence of Epidermal growth factor receptor (Homo sapiens) (P00533 whole entry): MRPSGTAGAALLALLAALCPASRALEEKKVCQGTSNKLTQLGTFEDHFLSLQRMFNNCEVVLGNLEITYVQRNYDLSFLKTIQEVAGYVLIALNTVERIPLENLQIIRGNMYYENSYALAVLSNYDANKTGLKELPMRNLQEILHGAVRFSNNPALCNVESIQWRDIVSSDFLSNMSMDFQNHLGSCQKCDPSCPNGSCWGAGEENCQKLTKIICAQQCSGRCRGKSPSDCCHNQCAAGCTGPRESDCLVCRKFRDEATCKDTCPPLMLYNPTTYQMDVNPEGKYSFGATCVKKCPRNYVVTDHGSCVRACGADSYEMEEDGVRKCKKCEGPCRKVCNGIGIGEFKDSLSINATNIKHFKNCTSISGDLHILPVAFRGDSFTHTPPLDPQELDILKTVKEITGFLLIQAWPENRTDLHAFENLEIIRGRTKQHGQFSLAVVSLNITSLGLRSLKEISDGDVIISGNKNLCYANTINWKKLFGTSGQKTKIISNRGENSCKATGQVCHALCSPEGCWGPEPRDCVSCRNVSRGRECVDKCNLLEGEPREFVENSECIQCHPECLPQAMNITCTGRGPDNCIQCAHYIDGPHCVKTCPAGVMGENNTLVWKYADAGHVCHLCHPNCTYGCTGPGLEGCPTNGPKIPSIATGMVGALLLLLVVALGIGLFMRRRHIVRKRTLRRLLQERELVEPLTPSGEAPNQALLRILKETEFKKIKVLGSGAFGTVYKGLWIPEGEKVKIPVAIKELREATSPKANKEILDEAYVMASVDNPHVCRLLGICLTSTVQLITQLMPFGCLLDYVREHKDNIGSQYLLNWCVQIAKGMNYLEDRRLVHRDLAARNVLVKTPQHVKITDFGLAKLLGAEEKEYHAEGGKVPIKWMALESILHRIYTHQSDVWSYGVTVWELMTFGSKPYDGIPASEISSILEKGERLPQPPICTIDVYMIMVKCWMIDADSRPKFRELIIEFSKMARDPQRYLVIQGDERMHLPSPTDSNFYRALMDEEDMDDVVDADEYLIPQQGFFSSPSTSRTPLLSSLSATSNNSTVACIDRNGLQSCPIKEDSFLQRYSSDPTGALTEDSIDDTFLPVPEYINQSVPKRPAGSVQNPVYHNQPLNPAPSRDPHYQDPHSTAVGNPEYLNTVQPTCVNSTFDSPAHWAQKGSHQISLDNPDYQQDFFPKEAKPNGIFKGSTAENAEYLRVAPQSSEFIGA

For `COc1ccc(/C=C/C(=O)Nc2cc3c(Nc4cc(Cl)cc(Cl)c4)ncnc3s2)cc1`, the IC50 with MDA-MB-231 is 1.97 µM; in the data set with HeLa [1], 43.3 µM; with MCF7, 75.6 µM; with A549, 21.9 µM; with PC-3, 0.45 µM; in the data set with HepG2, 41.8 µM.

As for `C#Cc1cccc(Nc2ncnc3cc(NC(=O)/C=C/c4ccccc4)sc23)c1`, the half-inhibitory concentration (IC50) worked out at 2.34 µM in the data set on MDA-MB-231; 20.5 µM with HeLa [1]; 75.6 µM in the data set on MCF7; 26.2 µM in the data set with A549; 0.7 µM in the data set with PC-3; 15.4 µM in the data set on HepG2.

Turning to `N#Cc1cccc(Nc2ncnc3cc(NC(=O)/C=C/c4ccccc4)sc23)c1`, the IC50 in the data set on MDA-MB-231 is 1.04 µM; with HeLa [1] it was 7.22 µM; in the data set with MCF7, more than 100 µM; with A549 it was 17.2 µM; with PC-3 it was 0.54 µM; with HepG2, 15.9 µM.

With `COc1ccc(/C=C/C(=O)Nc2cc3c(Nc4ccc(Cl)c(Cl)c4)ncnc3s2)cc1`, the IC50 came to 18.7 µM with MRC5; 10.7 µM in the data set on SK-OV-3; 11.9 µM with SK-BR-3; 7.41 µM with HCT-116; 4.4 µM in the data set with U-87 MG; 16.6 µM with MDA-MB-231. The IC50 was 0.033 µM in the data set with HeLa [1]; 5.75 µM in the data set with SW480; 20.1 µM with MCF7; 3.32 µM in the data set with A549; 0.79 µM in the data set with PC-3; 30.6 µM in the data set on HepG2. Also, the selectivity ratio in [2] is 5.6. Moreover, the Activity came to 15.5% with HeLa [3], 15.7% in the data set on HeLa [5], 66.8% in the data set with HeLa [6] and 2% in the data set with HeLa [7]. Further, the result in the data set on HeLa [4] was Active.

Turning to `O=C(/C=C/c1ccccc1)Nc1cc2ncnc(Nc3cc(Cl)cc(Cl)c3)c2s1`, the IC50 in the data set with MDA-MB-231 is 1 µM; with HeLa [1], 3.21 µM; in the data set with MCF7, more than 100 µM; with A549, 12.5 µM; in the data set on PC-3 it was 0.22 µM; in the data set with HepG2, 10.7 µM.

As to `O=C(/C=C/c1ccc(O)cc1)Nc1cc2c(Nc3ccc(Cl)c(Cl)c3)ncnc2s1`, the IC50 with MDA-MB-231 was 1.98 µM; in the data set on HeLa [1], 24.8 µM; with MCF7, 60.6 µM; with A549 it was 34.3 µM; in the data set on PC-3 it was 0.3 µM; with HepG2, 42.9 µM.

For `O=C(/C=C/c1ccccc1)Nc1cc2c(Nc3ccc(Cl)c(Cl)c3)ncnc2s1`, the IC50 in the data set on MDA-MB-231 was 4.4 µM; in the data set with HeLa [1] it was 0.43 µM; with MCF7 it was 15.3 µM; in the data set with A549, 7.6 µM; in the data set with PC-3, 0.48 µM; in the data set with HepG2, 30.1 µM.

For `O=C(/C=C/c1ccccc1)Nc1cc2c(Nc3cccc(Cl)c3F)ncnc2s1`, the IC50 in the data set on MDA-MB-231 came to 3.93 µM; in the data set with HeLa [1], 34.9 µM; in the data set on MCF7, 93.9 µM; in the data set on A549, 26.2 µM; with PC-3, 0.4 µM; in the data set with HepG2, 44.6 µM.

On to `O=C(/C=C/c1ccccc1)Nc1cc2ncnc(Nc3ccc(F)c(Cl)c3)c2s1`, for which the half-maximal inhibitory concentration (IC50) is 2.1 µM in the data set with MDA-MB-231; 2.81 µM in the data set on HeLa [1]; 30.9 µM in the data set on MCF7; 6.67 µM in the data set with A549; 0.2 µM in the data set with PC-3; 10.6 µM with HepG2.

Regarding `O=C(/C=C/c1ccccc1)Nc1cc2c(Nc3ccc(F)c(Cl)c3)ncnc2s1`, the IC50 in the data set on MDA-MB-231 was 7.6 µM; in the data set with HeLa [1] it was 2.14 µM; in the data set with MCF7 it was 14.3 µM; in the data set with A549 it was 11.2 µM; in the data set on PC-3 it was 0.7 µM; in the data set with HepG2, 22.8 µM.

Take `O=C(/C=C/c1ccccc1)Nc1cc2c(Nc3cc(Cl)cc(Cl)c3)ncnc2s1`: the IC50 was 28.8 µM with MRC5; 10.9 µM in the data set on SK-OV-3; 6.46 µM in the data set on SK-BR-3; 3.83 µM with HCT-116; 4.49 µM in the data set with U-87 MG; 11.5 µM with MDA-MB-231. In addition, the 50% inhibitory concentration (IC50) in the data set with HeLa [1] came out at 0.004 µM; in the data set on SW480 it was 4.93 µM; in the data set on MCF7, 5.8 µM; in the data set with A549, 0.04 µM; in the data set with PC-3 it was 0.39 µM; in the data set on HepG2, 21.8 µM. In data set [2], the selectivity ratio came out at 720. The Activity in the data set with HeLa [3] is on record as 11%; in the data set with HeLa [5], 42.8%; with HeLa [6] it was 45.8%; with HeLa [7], 0.448%. In addition, the result with HeLa [4] was Active. The inhibition entry in data set [8] is “inactive”. Also, the inhibition result in [9] and in data set [10] was “Active” each time.

For the molecule `C#Cc1cccc(Nc2ncnc3sc(NC(=O)/C=C/c4ccccc4)cc23)c1`, the IC50 is 5.05 µM with MDA-MB-231; 4.64 µM in the data set with HeLa [1]; 38.4 µM in the data set on MCF7; 10.1 µM in the data set on A549; 0.4 µM in the data set on PC-3; 58.1 µM with HepG2.

For `COc1ccc(/C=C/C(=O)Nc2cc3ncnc(Nc4ccc(F)c(Cl)c4)c3s2)cc1`, the IC50 worked out at 2.6 µM with MDA-MB-231; 20.6 µM with HeLa [1]; 29.1 µM in the data set with MCF7; 22.7 µM in the data set on A549; 0.1 µM in the data set on PC-3; 13.9 µM in the data set on HepG2.

For the molecule `C#Cc1cccc(Nc2ncnc3cc(OCCOC)c(OCCOC)cc23)c1` [ERLOTINIB], the IC50 was found to be 61.8 µM in the data set on SK-OV-3; 49.3 µM in the data set on SK-BR-3; 23.3 µM in the data set with HCT-116; 31.9 µM with U-87 MG; 8.3 µM in the data set with MDA-MB-231; 7.48 µM in the data set on HeLa [1]. The IC50 in the data set on SW480 worked out at 23 µM; in the data set on MCF7, 11.7 µM; in the data set on A549, 3.8 µM; in the data set with PC-3, 7 µM; in the data set with HepG2, 28.8 µM. The Activity is 26.2% in the data set with HeLa [11], 15% in the data set with HeLa [12], 52.7% in the data set with HeLa [13] and 6.06% in the data set on HeLa [14].

Regarding `O=C(/C=C/c1ccccc1)Nc1cc2ncnc(Nc3ccc(Cl)c(Cl)c3)c2s1`, the IC50 is 2.41 µM with MDA-MB-231; 10.7 µM with HeLa [1]; more than 100 µM with MCF7; 19.4 µM in the data set with A549; 0.26 µM in the data set with PC-3; 13.4 µM in the data set with HepG2.
